# Experimental data: patent publication US20050084612A1, “Surface coating for microfluidic devices that incorporate a biopolymer resistant moiety” (Caliper Life Sciences, Inc., priority 1999, published 2005)
# Target: T1, PTP1b (Homo sapiens, UniProt P18031)
# T1 sequence (P18031 1-435): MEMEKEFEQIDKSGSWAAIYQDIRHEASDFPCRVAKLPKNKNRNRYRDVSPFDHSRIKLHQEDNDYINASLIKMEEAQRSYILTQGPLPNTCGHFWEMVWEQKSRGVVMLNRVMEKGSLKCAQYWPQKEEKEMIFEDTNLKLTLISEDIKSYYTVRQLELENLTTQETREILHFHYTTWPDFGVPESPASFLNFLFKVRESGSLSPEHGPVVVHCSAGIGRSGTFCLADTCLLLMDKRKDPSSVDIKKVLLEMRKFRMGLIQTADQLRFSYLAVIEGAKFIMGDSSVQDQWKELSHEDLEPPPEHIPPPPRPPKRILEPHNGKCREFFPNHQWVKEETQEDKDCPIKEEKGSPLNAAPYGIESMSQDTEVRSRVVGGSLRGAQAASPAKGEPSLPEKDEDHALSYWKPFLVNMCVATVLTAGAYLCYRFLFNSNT
# Test: PTP1b/diFMUP Km measurement by substrate titration in microfluidic device
# Type: biochemical
# Conditions: read-out: Km PTP1b/diFMUP; PEI-2 coated device, no NDSB, 50 mM HEPES+10 mM DTT
# Method: A 0.1 mg/ml PTP1b solution (12 μl) was placed in well 8. […] The fluorescence signal is detected at the end of the main channel.
# The first 5 steps are substrate-only titrations using well 2 and well 3, with buffer flow from well 1. These provide measurements of the substrate background signal. The next 5 steps are the same substrate titration steps, but with enzyme flowing from well 8. The difference between these signals and the substrate-only background signal is product signal. […] The final concentration of the substrate was calculated from the known well concentration and the ratio of currents as programmed in the script. Plotting 1/(product signal per unit time) vs. 1/(substrate concentration) yields the Lineweaver-Burk plot with Km equal to slope divided by the y-intercept.
# The final substrate concentration was calculated from Equation 4.
compound,measurement,value
"Cc1cc(=O)oc2c(F)c(OP(=O)(O)O)c(F)cc12 [diFMUP, di-6-a-difluoro-4-methylumbelliferyl phosphate]",Km,3 µM
